Experimental data: ChEMBL document CHEMBL1201862, “PubChem BioAssay data set” (2004)
Active and inactive are the calls of the source.

Tests used:
cells [1] = assay type: functional, cell-based
cells [2] = assay type: functional, cell-based; remark: listed apart in the source
[3] = target: Glyceraldehyde-3-phosphate dehydrogenase (Homo sapiens, UniProt P04406)
[4] = NIH3T3 cell viability loss – ATP luminescence, mouse fibroblasts, counter-screen, dose response (AID 2010); assay type: functional, cell-based;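 note: cells exposed to compound for about 90 hours before reading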
[5] = microbe, parasite or virus in culture; assay type: functional; conditions: Mycobacterium tuberculosis
[6] = Trypanosoma cruzi growth suppression in host cells – NIH3T3 host cells, beta-gal luminescence, confirmation (AID 2044); assay type: functional, cell-based;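 note: intracellular parasites grown in NIH/3T3 mouse fibroblasts as host cells; luminescent beta-galactosidase reporter signal from transgenic T. cruzi replicating inside host cells; inhibitors lower the luminescence signal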
Insulin-degrading enzyme = target: T1, Insulin-degrading enzyme (Homo sapiens, UniProt P14735); experiment: Dose Response: Fluorescence polarization-based cell-based high throughput dose response assay for inhibitors of insulin-degrading enzyme (IDE). [Related pubchem assays: 434962 (Primary screen (IDE inhibitors in singlicate)), 449730 (Counterscreen (Cytotoxicity in triplicate)), 435028 (Confirmation (IDE inhibitors in triplicate)), 434984 (Summary …; assay type: functional
T1 sequence (P14735 whole entry): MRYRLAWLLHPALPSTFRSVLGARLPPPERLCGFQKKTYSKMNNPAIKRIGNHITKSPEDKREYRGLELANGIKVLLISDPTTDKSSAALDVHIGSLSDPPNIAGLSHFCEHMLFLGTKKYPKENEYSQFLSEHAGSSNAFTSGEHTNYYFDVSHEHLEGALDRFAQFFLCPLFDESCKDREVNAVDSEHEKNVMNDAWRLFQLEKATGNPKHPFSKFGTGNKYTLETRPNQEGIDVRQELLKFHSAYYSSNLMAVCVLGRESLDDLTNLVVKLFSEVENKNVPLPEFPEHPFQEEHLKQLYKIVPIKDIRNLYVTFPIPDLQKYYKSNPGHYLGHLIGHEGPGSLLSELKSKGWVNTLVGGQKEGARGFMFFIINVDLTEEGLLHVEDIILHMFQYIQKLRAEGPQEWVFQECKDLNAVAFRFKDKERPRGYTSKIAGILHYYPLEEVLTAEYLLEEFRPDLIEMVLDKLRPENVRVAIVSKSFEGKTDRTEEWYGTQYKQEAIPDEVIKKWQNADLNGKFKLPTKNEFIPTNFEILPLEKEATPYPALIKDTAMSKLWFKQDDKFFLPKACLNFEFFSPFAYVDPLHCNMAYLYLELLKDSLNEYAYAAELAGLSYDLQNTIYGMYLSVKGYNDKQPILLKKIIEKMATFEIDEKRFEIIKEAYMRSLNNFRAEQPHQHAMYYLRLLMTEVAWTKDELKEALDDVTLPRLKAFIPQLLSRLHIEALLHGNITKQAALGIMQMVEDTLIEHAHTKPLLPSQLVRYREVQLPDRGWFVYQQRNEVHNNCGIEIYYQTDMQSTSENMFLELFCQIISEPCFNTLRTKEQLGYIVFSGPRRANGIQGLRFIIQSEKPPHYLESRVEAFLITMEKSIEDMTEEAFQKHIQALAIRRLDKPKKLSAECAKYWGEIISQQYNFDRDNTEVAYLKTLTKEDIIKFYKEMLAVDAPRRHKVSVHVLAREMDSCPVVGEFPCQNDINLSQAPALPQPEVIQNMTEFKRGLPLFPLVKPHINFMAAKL

[7] = Counterscreen for IDE inhibitors: Luminescence-based cell-based high throughput dose response assay to identify compounds that are cytotoxic to HEK cells. [Related pubchem assays: 434962 (Primary screen (IDE inhibitors in singlicate)), 449730 (Counterscreen (Cytotoxicity in triplicate)), 435028 (Confirmation (IDE inhibitors in triplicate)) …; assay type: functional; conditions: HEK293
[8] = target: FAD-linked sulfhydryl oxidase ALR (Homo sapiens, UniProt P55789); experiment: ALR-catalysed DTT oxidation blockers – biochemical, H2O2 detection, luminescence, cherry-pick, dose response (AID 493248)
Chain of FAD-linked sulfhydryl oxidase ALR (P55789 whole entry): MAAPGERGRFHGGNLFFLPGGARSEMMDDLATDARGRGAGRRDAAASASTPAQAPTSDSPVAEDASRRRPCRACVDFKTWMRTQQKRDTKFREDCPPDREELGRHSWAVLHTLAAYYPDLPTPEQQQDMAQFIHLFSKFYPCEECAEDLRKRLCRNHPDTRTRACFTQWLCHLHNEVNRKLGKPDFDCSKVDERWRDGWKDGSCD

[9] = target: T2, Heat shock factor protein 1 (Mus musculus, UniProt P38532); experiment: decrease of HSF1-responsive luciferase luminescence – cell-based, NIH3T3, dose retest, confirmation (AID 2382); assay type: functional;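 note: NIH3T3 fibroblasts with HSF1-driven luciferase reporter stressed by proteasome inhibitor MG132; luminescence from HSF1-driven luciferase expression after 8 hours of MG132 stress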
T2 sequence (P38532 whole entry): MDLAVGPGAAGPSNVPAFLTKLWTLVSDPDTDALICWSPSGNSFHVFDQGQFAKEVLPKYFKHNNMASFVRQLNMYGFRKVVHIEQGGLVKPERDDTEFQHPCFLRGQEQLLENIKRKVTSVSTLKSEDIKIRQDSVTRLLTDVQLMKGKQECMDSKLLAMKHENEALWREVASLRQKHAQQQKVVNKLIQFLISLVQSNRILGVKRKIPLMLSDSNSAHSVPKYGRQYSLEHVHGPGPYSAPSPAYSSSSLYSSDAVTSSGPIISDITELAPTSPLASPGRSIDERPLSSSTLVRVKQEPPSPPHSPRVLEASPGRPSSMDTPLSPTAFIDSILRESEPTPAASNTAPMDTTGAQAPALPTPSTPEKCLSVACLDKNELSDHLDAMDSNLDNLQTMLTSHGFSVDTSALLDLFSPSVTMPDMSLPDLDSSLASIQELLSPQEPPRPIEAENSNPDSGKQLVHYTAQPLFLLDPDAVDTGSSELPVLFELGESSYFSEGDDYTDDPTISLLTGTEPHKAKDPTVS

[10] = alpha-synuclein stem-loop luciferase translation blockers – H4 neuroglioma cells, luminescence, confirmation (AID 1988); assay type: functional, cell-based
[11] = luciferase reporter signal suppression in cells – H4 neuroglioma cells, luminescence, dose response (AID 1990); assay type: functional, cell-based
[12] = target: T3, Microphthalmia-associated transcription factor (Homo sapiens, UniProt O75030); experiment: reducers of TRPM1 reporter luminescence, concentration series – cell-based, SK-MEL-5, cherry-picked, set 3, MITF inhibitor project, dose response (AID 493073); assay type: functional;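 note: SK-MEL-5 melanoma cells with luciferase driven by the MITF target TRPM1 promoter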
T3 sequence (O75030 whole entry): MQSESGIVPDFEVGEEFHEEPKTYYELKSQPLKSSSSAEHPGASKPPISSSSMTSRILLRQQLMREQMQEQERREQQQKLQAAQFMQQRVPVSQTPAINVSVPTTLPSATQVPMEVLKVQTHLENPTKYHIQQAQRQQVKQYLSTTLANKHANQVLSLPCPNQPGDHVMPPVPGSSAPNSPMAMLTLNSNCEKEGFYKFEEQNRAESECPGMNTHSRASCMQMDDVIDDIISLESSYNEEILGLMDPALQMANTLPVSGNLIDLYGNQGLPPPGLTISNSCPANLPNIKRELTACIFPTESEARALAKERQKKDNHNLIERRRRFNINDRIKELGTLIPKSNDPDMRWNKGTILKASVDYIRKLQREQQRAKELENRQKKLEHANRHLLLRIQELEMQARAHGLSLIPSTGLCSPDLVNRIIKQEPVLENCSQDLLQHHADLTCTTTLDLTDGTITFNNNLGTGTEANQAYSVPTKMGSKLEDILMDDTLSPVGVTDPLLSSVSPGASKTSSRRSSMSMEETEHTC

Estrogen receptor beta = Estrogen receptor beta (Homo sapiens, UniProt Q92731);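 note: recombinant ER-beta bound to coactivator SRC1 peptide in presence of estradiol agonist; inhibitors block coactivator peptide binding and lower the FRET signal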
Chain of Estrogen receptor beta (Q92731 whole entry): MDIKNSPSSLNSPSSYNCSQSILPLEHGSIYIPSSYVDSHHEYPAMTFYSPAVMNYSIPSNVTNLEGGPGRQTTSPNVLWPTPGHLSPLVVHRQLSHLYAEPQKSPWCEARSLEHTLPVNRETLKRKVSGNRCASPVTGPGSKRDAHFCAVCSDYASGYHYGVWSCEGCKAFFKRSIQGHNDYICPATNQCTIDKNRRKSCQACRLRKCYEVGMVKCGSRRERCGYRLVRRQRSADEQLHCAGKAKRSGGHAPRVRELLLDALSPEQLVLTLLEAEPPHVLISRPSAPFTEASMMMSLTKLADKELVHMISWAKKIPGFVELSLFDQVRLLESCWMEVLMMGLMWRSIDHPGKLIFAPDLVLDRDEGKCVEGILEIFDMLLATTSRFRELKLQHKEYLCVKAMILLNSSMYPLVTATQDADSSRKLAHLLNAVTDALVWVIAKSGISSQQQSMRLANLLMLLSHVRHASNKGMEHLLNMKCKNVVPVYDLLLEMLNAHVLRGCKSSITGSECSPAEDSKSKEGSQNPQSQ

[13] = viability loss in THP-1 monocytes – THP-1 cells, cytotoxicity control for Vif-APOBEC3G degradation inhibitor project, dose response (AID 1117359); assay type: functional; conditions: THP-1
[14] = fluconazole-exposed Candida albicans growth modulators – fluorescence, retest, confirmation (AID 2467); assay type: functional, cell-based
[15] = NIH-3T3 fibroblast cytotoxicity, dose response, cytotoxicity control, cell-based, fluorescence, Alamar Blue, secondary assay (AID 2327); assay type: functional;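 note: NIH-3T3 mouse fibroblasts cultured with fluconazole at 8 µg/mL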
Cytochrome P450 3A4 = Cytochrome P450 3A4 (Homo sapiens, UniProt P08684); conditions: Potency;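 note: confirmatory qHTS run detecting inhibitors and substrates of CYP3A4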
Chain of Cytochrome P450 3A4 (P08684 whole entry): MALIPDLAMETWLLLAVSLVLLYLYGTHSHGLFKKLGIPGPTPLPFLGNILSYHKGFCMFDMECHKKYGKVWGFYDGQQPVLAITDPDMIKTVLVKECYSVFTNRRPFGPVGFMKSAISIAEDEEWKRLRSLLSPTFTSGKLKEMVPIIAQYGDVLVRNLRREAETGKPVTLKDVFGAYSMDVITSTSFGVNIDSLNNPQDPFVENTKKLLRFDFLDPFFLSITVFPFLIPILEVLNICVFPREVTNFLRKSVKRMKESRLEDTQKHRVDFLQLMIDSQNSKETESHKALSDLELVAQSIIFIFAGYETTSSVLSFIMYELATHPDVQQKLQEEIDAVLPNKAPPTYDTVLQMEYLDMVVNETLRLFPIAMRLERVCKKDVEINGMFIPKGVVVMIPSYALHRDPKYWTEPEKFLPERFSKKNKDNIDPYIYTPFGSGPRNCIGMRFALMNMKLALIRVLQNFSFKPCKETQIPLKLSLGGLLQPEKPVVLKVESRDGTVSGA

[16] = target: T4, Rac GTPase-activating protein 1 (Homo sapiens, UniProt Q9H0H5); experiment: blockers of MgcRacGAP-driven Rac1 GTP hydrolysis – biochemical, ADP Hunter fluorescence, primary and confirmatory, confirmation (AID 624330); assay type: functional
T4 sequence (Q9H0H5 whole entry): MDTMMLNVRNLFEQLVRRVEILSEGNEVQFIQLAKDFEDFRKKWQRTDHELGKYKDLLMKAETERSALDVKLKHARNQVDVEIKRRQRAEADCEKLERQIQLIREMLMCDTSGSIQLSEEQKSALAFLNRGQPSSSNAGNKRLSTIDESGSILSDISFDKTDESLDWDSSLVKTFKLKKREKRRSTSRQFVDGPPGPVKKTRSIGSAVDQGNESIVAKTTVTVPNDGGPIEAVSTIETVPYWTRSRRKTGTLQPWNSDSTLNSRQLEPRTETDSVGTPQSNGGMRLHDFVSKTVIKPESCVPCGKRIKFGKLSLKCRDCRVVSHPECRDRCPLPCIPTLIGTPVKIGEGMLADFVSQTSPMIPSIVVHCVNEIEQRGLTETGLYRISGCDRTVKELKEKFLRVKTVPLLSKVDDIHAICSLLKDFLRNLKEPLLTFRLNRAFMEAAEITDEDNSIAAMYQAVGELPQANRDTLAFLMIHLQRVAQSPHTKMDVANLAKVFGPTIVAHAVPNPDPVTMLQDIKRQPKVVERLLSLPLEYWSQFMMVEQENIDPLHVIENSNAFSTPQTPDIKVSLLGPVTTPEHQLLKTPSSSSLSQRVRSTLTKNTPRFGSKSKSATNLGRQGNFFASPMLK

[17] = intracellular Trypanosoma cruzi inhibitors in host cells – cell-based, plate reader, cherry-pick samples, set 3, dose response (AID 651818); assay type: functional;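 note: compounds incubated with infected cells for about four days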
Paired box protein Pax-8 = Paired box protein Pax-8 (Homo sapiens, UniProt Q06710); experiment: PAX8 transcriptional activity inhibition in RMG-I – RMG-I cells, luciferase, cherry-pick, dose response (AID 687027); assay type: functional, cell-based;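 note: luciferase reporter driven by Pax8 target thyroperoxidase promoter measured by SteadyGlo luminescence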
Chain of Paired box protein Pax-8 (Q06710 whole entry): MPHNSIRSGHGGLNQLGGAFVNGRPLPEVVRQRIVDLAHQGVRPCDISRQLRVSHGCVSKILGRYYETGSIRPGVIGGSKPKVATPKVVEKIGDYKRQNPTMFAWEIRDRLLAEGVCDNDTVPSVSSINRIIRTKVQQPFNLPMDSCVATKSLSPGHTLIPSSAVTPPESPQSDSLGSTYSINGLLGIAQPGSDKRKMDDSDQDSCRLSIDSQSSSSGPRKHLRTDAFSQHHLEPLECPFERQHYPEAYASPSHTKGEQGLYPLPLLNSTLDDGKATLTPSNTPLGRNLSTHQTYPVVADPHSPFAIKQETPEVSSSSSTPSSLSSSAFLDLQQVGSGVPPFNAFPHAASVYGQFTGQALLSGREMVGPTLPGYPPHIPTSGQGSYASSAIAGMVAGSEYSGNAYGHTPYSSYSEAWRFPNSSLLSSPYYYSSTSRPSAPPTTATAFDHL

[18] = OVCAR8 cell viability loss – plate reader, dry powder samples, PAX8 project, dose response (AID 743197); assay type: functional, cell-based; conditions: OVCAR-8
[19] = OVCAR-3 cell viability loss – plate reader, dry powder samples, PAX8 inhibitor project, dose response (AID 743044); assay type: functional, cell-based

Chain of Glyceraldehyde-3-phosphate dehydrogenase (P04406 whole entry): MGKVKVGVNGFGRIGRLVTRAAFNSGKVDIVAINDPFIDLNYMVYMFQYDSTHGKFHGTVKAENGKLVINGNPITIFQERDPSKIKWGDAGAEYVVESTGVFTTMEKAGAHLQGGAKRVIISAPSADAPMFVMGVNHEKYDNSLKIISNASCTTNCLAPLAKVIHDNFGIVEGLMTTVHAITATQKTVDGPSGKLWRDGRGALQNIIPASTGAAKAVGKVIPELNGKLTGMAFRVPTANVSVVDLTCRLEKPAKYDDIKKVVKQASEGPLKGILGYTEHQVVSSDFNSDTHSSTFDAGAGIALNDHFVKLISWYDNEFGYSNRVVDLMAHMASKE

O=C(O)c1ccc2cccc(O)c2n1
EC50 (cells [1]): > 350 µM (not active) | EC50 (cells [2]): > 350 µM (not active) | IC50 [3]: > 100 µM (not active)

CC1(c2cc([N+](=O)[O-])cc([N+](=O)[O-])c2)CC(C)(C)N(C(=O)c2ccccc2)c2ccccc21 (centres undefined)
EC50 [4]: 10.7 µM (active) | CC50 [5]: > 40 µM (active) | EC50 [6]: 0.17 µM (active)

O=C(O)c1ccc(OCc2ccc(C(=O)O)o2)cc1
IC50 [3]: > 100 µM (not active)

Cc1ccc(-c2cc(C(=O)Nc3ccc(S(=O)(=O)Nc4ncccn4)cc3)[nH]n2)c(O)c1C
IC50 (Insulin-degrading enzyme): 17.7 µM (not active) | IC50 [7]: > 55.7 µM (not active)

CN(C)c1ccc(/C=C2\SC(=O)N(CCc3nnc(N)s3)C2=O)cc1
AC50 [8]: 1.87 µM (active) | IC50 (Insulin-degrading enzyme): > 55.9 µM (not active) | EC50 [9]: 6.52 µM (inconclusive) | EC50 [10]: 4.74 µM (active) | EC50 [11]: 8.39 µM (inconclusive) | IC50 [7]: 47.8 µM (not active) | AC50 [12]: 2.54 µM (active)

CCOC(=O)C1C(=O)NC(SCC(N)=O)=C(C#N)C1c1ccccc1OCC (centres undefined)
IC50 (Insulin-degrading enzyme): > 6.21 µM (active) | IC50 [7]: > 55.7 µM (not active)

C=CCn1c(SCc2cc(C(=O)OC)c(C)o2)nnc1-c1ccncc1
IC50 (Estrogen receptor beta): > 50 µM (not active)

CCCCc1ccc(NC(=O)CC(C)(C)C)cc1
CC50 [13]: > 40 µM (active)

COC(=O)c1ccc(C(=O)OC)c(NC(=O)CSc2cccc[n+]2[O-])c1
EC50 [14]: 1.34 µM (active) | CC50 [5]: > 40 µM (active) | EC50 [15]: > 160 µM (inconclusive)

COc1ccccc1-c1oc2ccccc2c(=O)c1OC
AC50 (Cytochrome P450 3A4): 20 µM (inconclusive)

Nc1cc([N+](=O)[O-])ccc1Nc1ccc(O)cc1
AC50 [8]: 0.269 µM (active) | IC50 [16]: 38.2 µM (active) | CC50 [5]: > 40 µM (active)

C[C@H]1CN([C@@H](C)CO)C(=O)Cc2cc(NC(=O)Nc3cccc4ccccc34)ccc2O[C@@H]1CN(C)Cc1ccc(C(F)(F)F)cc1
AC50 [17]: 2.3 µM (active)

C[C@@H]1CN([C@@H](C)CO)C(=O)Cc2cc(NC(=O)Nc3ccc(C(F)(F)F)cc3)ccc2O[C@@H]1CN(C)Cc1ccc(Cl)c(Cl)c1
AC50 [17]: 1.85 µM (active)

C[C@H](CO)N1C[C@H](C)[C@H](CN(C)S(=O)(=O)c2cccs2)Oc2c(NC(=O)c3cnccn3)cccc2C1=O
AC50 [17]: 2.44 µM (active)

C[C@@H]1CN([C@H](C)CO)C(=O)c2cccc(NC(=O)Nc3ccc(C(F)(F)F)cc3)c2O[C@@H]1CN(C)Cc1ccc(Cl)c(Cl)c1
AC50 [17]: 2.26 µM (active)

C[C@H](CO)N1C[C@H](C)[C@H](CN(C)Cc2ccc(Oc3ccccc3)cc2)Oc2c(NC(=O)CCCCCC(=O)Nc3ccccc3N)cccc2C1=O
AC50 [17]: 2.36 µM (active)

C[C@H]1CN([C@@H](C)CO)C(=O)c2cc(NS(=O)(=O)c3ccc(Cl)cc3)ccc2O[C@H]1CN(C)Cc1ccc(Cl)c(Cl)c1
AC50 (Paired box protein Pax-8): 7.5 µM (active) | AC50 [18]: > 70 µM (inactive)

C[C@@H]1CN([C@H](C)CO)C(=O)c2cc(NC(=O)Nc3ccc(C(F)(F)F)cc3)ccc2O[C@@H](C)CCCCO[C@H]1CN(C)C(=O)NC1CCCCC1
AC50 (Paired box protein Pax-8): 2.8 µM (active) | AC50 [19]: 27.4 µM (active) | AC50 [18]: 47.2 µM (active)

C[C@H](CO)N1C[C@H](C)[C@@H](CN(C)C(=O)C2CCCCC2)OCCCC[C@H](C)Oc2ccc(NS(=O)(=O)c3ccc(Cl)cc3)cc2C1=O
AC50 (Paired box protein Pax-8): 8.51 µM (active) | AC50 [19]: 24.4 µM (active)

C/C(=C\C(=S)Nc1ccccc1)Nc1ccc2ccccc2c1
CC50 [5]: 36.2 µM (active)

CC(C)N(C(=O)CO/N=C/c1cccc([N+](=O)[O-])c1)C(C)C
CC50 [13]: > 40 µM (active)

COc1cc(-c2oc3cc(O)ccc3c(=O)c2O)ccc1O [GERALDOL]
AC50 (Cytochrome P450 3A4): 10 µM (inconclusive)

CC(C(=O)O)c1ccc(N2Cc3ccccc3C2=O)cc1 (centres undefined) [INDOPROFEN]
AC50 (Cytochrome P450 3A4): 39.8 µM (inconclusive)

CNC(=O)N(C)c1nnc(C(C)(C)C)s1 [TEBUTHIURON]
AC50 (Cytochrome P450 3A4): 12.6 µM (inconclusive)
